Like-named read-outs stand apart in the source and are kept apart here.
How the values were obtained:
Format in all cases: binding
[1] = target: T1, HeLa cell extract proteins (Homo sapiens, UniProt O00410)
T1 construct: endogenous in cells; host or cells: HeLa cell extract
T1 sequence (O00410 1-1097): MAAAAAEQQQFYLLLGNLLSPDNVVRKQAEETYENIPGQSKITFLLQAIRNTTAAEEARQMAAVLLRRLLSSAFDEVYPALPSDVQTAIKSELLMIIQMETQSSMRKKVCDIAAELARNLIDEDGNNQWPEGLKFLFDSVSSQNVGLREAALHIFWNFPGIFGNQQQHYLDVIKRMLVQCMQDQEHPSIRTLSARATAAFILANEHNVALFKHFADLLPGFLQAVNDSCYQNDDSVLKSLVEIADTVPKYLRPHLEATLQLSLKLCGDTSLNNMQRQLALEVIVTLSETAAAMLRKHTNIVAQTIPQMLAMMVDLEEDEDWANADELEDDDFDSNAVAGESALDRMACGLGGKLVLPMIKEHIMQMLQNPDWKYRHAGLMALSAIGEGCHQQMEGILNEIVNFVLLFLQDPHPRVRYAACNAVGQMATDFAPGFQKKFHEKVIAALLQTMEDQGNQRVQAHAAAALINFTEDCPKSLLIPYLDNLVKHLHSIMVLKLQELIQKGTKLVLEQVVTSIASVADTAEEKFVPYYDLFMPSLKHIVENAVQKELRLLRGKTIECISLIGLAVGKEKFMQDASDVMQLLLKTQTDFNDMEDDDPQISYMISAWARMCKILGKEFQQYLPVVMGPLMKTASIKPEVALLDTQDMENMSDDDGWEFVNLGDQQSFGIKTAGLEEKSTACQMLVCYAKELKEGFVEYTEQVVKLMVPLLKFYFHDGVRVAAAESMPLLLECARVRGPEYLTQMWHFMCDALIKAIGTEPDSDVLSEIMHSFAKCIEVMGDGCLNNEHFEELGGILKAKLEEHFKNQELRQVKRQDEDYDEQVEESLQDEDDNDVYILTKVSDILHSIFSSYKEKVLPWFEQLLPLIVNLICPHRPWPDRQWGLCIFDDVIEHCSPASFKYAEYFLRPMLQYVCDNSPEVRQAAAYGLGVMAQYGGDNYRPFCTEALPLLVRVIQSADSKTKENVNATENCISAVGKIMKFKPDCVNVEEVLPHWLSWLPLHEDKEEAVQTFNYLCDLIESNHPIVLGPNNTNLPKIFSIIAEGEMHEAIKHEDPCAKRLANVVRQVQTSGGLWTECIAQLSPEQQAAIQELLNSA

[2] = target: T2, HeLa cell extract proteins (Homo sapiens, UniProt P04083)
T2 construct: endogenous in cells; host or cells: HeLa cell extract
T2 sequence (P04083 1-346): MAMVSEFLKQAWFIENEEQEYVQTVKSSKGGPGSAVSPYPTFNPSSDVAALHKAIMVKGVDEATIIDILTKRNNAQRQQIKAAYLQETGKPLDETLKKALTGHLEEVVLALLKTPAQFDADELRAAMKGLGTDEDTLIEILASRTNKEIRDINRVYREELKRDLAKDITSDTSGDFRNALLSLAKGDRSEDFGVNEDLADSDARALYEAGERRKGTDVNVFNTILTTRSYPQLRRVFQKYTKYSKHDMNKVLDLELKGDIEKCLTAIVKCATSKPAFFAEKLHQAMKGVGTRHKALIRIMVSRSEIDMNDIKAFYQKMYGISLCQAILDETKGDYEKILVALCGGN

[3] = target: T3, HeLa cell extract proteins (Homo sapiens, UniProt Q5H9R7)
T3 construct: endogenous in cells; host or cells: HeLa cell extract
T3 sequence (Q5H9R7 1-873): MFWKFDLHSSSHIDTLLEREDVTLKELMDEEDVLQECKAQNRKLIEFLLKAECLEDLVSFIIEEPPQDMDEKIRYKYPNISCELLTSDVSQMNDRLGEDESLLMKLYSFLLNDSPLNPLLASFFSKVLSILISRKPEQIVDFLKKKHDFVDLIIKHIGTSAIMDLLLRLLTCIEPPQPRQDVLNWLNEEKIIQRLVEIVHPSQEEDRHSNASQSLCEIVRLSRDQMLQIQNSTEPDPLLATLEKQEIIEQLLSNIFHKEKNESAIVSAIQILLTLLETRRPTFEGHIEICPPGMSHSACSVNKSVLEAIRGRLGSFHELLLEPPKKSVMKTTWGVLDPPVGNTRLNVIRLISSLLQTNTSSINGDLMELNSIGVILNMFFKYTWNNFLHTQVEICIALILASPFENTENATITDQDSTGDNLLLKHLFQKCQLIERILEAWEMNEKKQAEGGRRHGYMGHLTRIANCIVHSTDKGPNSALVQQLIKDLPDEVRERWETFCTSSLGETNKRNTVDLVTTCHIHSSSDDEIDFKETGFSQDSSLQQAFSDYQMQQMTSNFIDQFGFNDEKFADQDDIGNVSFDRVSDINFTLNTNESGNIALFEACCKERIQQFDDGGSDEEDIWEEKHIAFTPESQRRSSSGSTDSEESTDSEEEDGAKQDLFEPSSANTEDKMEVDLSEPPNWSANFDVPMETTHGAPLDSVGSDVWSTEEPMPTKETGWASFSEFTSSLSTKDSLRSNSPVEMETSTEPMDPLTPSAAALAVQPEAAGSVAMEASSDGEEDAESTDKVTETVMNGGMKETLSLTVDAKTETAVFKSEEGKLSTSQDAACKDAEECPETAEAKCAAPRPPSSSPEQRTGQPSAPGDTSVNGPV

[4] = target: T4, HeLa cell extract proteins (Homo sapiens, UniProt Q92947)
T4 construct: endogenous in cells; host or cells: HeLa cell extract
T4 sequence (Q92947 45-438): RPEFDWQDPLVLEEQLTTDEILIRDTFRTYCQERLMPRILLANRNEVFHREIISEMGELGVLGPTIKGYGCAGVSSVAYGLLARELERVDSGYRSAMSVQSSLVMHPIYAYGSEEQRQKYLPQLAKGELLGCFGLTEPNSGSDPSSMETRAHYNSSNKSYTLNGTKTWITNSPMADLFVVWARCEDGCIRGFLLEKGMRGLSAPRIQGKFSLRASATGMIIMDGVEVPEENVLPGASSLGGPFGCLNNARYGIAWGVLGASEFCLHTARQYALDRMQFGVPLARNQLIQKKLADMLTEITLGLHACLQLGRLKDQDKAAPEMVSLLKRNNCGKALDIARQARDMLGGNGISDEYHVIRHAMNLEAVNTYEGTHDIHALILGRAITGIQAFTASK

[5] = target: T5, HeLa cell extract proteins (Homo sapiens, UniProt Q96LA8)
T5 construct: endogenous in cells; host or cells: HeLa cell extract

[6] = target: T6, HeLa cell extract proteins (Homo sapiens, UniProt Q9BQA1)
T6 construct: endogenous in cells; host or cells: HeLa cell extract

[7] = HeLa, protein PRMT6 (PROTEIN ARGININE N-METHYLTRANSFERASE 6)

T5 sequence (Q96LA8 whole entry): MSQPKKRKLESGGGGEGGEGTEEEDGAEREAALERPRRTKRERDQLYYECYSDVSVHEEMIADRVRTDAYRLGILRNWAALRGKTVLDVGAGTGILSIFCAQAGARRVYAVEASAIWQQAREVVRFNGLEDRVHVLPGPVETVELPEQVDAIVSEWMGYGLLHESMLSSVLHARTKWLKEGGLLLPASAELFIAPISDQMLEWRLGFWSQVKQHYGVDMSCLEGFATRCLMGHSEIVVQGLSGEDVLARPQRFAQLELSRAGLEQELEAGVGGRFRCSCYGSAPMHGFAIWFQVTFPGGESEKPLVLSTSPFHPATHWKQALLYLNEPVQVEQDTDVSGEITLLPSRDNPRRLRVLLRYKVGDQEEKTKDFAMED
T6 sequence (Q9BQA1 whole entry): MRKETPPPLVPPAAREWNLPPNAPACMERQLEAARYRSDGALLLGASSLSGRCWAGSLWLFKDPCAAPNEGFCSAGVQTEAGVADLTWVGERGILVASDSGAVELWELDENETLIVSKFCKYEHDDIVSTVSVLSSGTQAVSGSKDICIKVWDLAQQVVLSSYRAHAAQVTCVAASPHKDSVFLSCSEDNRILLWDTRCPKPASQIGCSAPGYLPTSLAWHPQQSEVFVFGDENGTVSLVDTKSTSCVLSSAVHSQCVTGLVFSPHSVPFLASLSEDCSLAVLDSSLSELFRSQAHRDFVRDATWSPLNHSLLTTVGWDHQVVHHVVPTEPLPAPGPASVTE

| SMILES | fold changes relative to vehicle control ([1]; protein IPO5, HeLa) | fold changes relative to vehicle control ([2]; protein ANXA1, HeLa) | fold changes relative to vehicle control ([3]; HeLa, protein SAPS3) | fold changes relative to vehicle control ([4]; captured protein GCDH, HeLa) | fold changes relative to vehicle control ([5]; protein PRMT6, HeLa) | fold changes relative to vehicle control ([6]; protein WDR77, HeLa) | fold changes relative to vehicle control ([1]; HeLa, protein IPO5) | fold changes relative to vehicle control ([4]; HeLa, captured protein GCDH) | fold changes relative to vehicle control [5, 7] | fold changes relative to vehicle control ([6]; HeLa, protein WDR77) | fold changes relative to vehicle control [1] | fold changes relative to vehicle control [2] | fold changes relative to vehicle control [3] | fold changes relative to vehicle control [4] | fold changes relative to vehicle control [5] | fold changes relative to vehicle control [6] |
| --- | --- | --- | --- | --- | --- | --- | --- | --- | --- | --- | --- | --- | --- | --- | --- | --- |
| Nc1nc2cccc(-c3ccccc3)c2n1Cc1ccc(Cl)c(Cl)c1 [compound 3] | 1.03 | 0.86 | 1.11 | 0.98 | 0.93 | 1 | – | – | – | – | – | – | – | – | – | – |
| CCCCCCOc1ccc(Cc2cnc(N)nc2N)cc1 [compound 1] | 0.99 | 1.21 | 0.96 | 0.91 | 1.01 | 1.12 | – | – | – | – | – | – | – | – | – | – |
| NCCCNc1ccc(C(=O)NC(CCC(=O)O)C(=O)O)cc1 (stereo not drawn) [compound 7] | – | 0.87 | 0.93 | – | – | – | 0.94 | 0.98 | 1.01 | 0.96 | – | – | – | – | – | – |
| CCCCCCOc1cccc(Cc2cnc(N)nc2N)c1 [compound 2] | 1.27 | 1.86 | 1.09 | 0.95 | 0.89 | 1.33 | – | – | – | – | – | – | – | – | – | – |
| NCCOCCOCC(=O)Nc1nc2ncc(CNc3ccc(C(=O)NC(CCC(=O)O)C(=O)O)cc3)nc2c(=O)[nH]1 (stereo not drawn) [compound 6] | – | 1.24 | 0.88 | – | – | – | 0.99 | 0.62 | 0.93 | 1.03 | – | – | – | – | – | – |
| Nc1nc2[nH]cc(CCc3ccc(C(=O)N[C@@H](CCC(=O)O)C(=O)O)cc3)c2c(=O)[nH]1 [PTX, pemetrexed] | – | – | – | – | – | – | – | – | – | – | 0.91 | 0.98 | 0.94 | 0.75 | 1.03 | 0.81 |
| Nc1nc2c(c(=O)[nH]1)N(C=O)C(CNc1ccc(C(=O)N[C@@H](CCC(=O)O)C(=O)O)cc1)CN2 (stereo partly drawn) [LEU, leucovorin] | – | 0.81 | 0.94 | – | – | – | 0.93 | 0.96 | 1.17 | 0.83 | – | – | – | – | – | – |
